For assay [1], the target named is T1, Human DNA polymerase beta (Homo sapiens, UniProt P06746).
T1 construct: purchased CHIMERx
Put plainly: DNA-dependent DNA polymerase activity. The assay is classed as biochemical. To be noted: DNA Pol β. The method, then: (§1) to the method described previously 1. A 25 nM solution of RSV MTase-CTD protein or RSV L+P complex was incubated with 0.7 µM or 1.8 µM purified synthetic RNA 5’-Gppp […]
(§2) […] (RSV9) for the MTase-CTD or L+P complex, respectively; 2 µM or 0.17 µM S-adenosyl methionine (SAM) for the MTase-CTD or L–P complex, respectively; and 0.1 µM or 0.8 µM 3H-SAM (Perkin Elmer) for the MTase-CTD or L–P complex, respectively; in 50 mM Tris-HCl pH 8.0. Compounds, previously dissolved in DMSO were added at a final concentration of 50 µM or 200 µM. After 3 h incubation at 30°C, reactions were quenched by a 20-fold dilution in ice cold water. Samples were transferred to DEAE filtermats (Perkin Elmer) using a Filtermat Harvester (Packard Instruments). The RNA-retaining mats were washed twice with 10 mM ammonium formate pH 8.0, twice with water and once with ethanol. They were then soaked with scintillation fluid (Perkin Elmer), and 3H-methyl transfer to the RNA substrates was determined using a Wallac MicroBeta TriLux Liquid Scintillation Counter.
(§3) Cellular polymerase assays
(§4) DNA-dependant DNA polymerase (DdDp) activity
(§5) Human DNA polymerases alpha (CHIMERx) at 5 U/ml, beta (CHIMERx) at 0.5 U/ml and gamma (Abcam) at 0.1 mg/ml were incubated with the tested inhibitors at specified concentrations, and a reaction mix composed of 62 µg/ml activated calf thymus DNA, dGTP (2 µM), dATP (2 µM), dCTP (2 µM), [ 3H]dTTP (0.05 µCi/µl), 0.1 mg/ml BSA and a buffer composed of Tris-HCl pH 8 (50 mM), MgCl 2 (5 mM), KCl (60 mM), and DTT (4 mM.) in a total volume of 50 µl. After 2 hours incubation at 30°C, reaction was terminated by addition of 60 µl of a chilled stop solution composed of 20% (w/v) TCA with 0.5 mM ATP. […] Radioactivity was measured via liquid scintillation counting (MicroScint-20, 40µl) on a TriLux apparatus. […]
(§6) The RNA transcription activity of human mitochondrial RNA polymerase (POLRMT) was measured by the incorporation of radioactively labeled nucleotides by POLRMT into acid-insoluble RNA products as described previously 2. […]

In assay [2] the target is T2, Human DNA polymerase gamma (Homo sapiens, UniProt P54098).
T2 construct: purchased Abcam
T2 sequence (P54098 1-1239): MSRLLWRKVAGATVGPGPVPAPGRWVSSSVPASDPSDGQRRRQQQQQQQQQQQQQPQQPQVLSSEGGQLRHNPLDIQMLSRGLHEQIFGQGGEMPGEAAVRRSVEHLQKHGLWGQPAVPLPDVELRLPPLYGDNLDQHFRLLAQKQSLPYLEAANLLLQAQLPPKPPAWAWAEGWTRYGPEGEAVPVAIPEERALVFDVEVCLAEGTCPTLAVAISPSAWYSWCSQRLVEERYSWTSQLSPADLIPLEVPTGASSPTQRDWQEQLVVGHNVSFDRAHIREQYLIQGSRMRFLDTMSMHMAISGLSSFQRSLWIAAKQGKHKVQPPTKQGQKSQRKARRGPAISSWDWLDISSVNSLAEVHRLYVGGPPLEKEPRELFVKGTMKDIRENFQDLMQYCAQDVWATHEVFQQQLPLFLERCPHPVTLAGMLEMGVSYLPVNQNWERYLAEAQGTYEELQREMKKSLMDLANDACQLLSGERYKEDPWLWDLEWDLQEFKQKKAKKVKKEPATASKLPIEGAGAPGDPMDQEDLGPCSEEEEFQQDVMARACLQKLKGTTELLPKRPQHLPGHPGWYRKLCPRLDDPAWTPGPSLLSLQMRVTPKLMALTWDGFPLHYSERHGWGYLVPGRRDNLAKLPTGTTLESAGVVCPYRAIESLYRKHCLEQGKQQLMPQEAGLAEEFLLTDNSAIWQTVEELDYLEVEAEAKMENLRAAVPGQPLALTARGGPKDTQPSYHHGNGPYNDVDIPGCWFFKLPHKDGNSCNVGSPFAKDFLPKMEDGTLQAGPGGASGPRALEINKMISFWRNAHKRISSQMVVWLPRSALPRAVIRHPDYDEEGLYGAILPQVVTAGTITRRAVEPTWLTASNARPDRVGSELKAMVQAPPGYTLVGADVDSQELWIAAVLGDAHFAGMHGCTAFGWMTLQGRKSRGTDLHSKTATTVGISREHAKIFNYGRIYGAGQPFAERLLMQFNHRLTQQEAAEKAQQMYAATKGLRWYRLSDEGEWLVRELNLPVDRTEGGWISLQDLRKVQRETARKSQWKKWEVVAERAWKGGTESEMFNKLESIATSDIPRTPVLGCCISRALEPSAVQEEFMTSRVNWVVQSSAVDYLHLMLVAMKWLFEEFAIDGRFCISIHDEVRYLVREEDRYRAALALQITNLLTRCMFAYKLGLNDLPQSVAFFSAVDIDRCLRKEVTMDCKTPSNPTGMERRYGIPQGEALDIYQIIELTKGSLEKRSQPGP
The assay can be described thus: DNA-dependent DNA polymerase activity. To be noted: DNA Pol γ. The assay is classed as biochemical. The method, then:
as §1, §2, §3, §4, §5, §6

As usually defined, the IC50 is the concentration that gives 50% inhibition. Take `COc1cc(C(=O)NC[C@](O)(c2cc(C(C)(C)O)c(F)c(-c3ccc(F)cc3)n2)C(F)(F)F)cc2cc(C)nnc12` [JNJ-8003]: the half-maximal inhibitory concentration (IC50) in assay [1] and in assay [2] was above 100 µM in each case.
